Our source for the IC50 values is PubChem BioAssay AID743310 (Sanford-Burnham Center for Chemical Genomics, 2014).

The source made the active and inactive calls.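 Rule for the calls: active = IC50 at or below 20 µM; inactive = the rest.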

The target in this experiment is Dual specificity protein phosphatase 3 (Homo sapiens) (UniProt P51452). Nature of the experiment: VHR1 phosphatase inhibition, selectivity check, SAR follow-up, selectivity assay for LMPTP inhibitor project, biochemical, fluorescence, OMFP substrate (AID 743310). As to conditions: recombinant VHR, OMFP fluorogenic substrate, 50 min.
Dual specificity protein phosphatase 3 (Homo sapiens), sequence (P51452 whole entry, looked up): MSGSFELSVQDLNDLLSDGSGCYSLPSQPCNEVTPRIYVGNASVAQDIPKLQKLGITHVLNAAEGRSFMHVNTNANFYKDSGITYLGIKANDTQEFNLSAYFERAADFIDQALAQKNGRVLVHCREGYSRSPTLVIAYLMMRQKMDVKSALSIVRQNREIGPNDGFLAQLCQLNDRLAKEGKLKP

Take `Fc1cccc(-c2cc(NCCCN3CCCCC3)c3ccccc3n2)c1`: the IC50 was > 80 µM (inactive).

For `c1ccc(-c2cc(NCCN3CCCC3)c3ccccc3n2)cc1`, the IC50 was > 80 µM (inactive).

`FC(F)(F)c1cccc(-c2cc(NCCCN3CCCCC3)c3ccccc3n2)c1`: the IC50 was > 80 µM (inactive).

Take `COc1ccc(-c2cc(NCCCN3CCCCC3)c3ccccc3n2)cc1`: the IC50 is > 80 µM (inactive).

Regarding `Cc1cccc(-c2nc(NCCCN3CCOCC3)c3ccccc3n2)c1`, the IC50 is > 80 µM (inactive).

As to `c1ccc(-c2cc(OCCCN3CCCCC3)c3ccccc3n2)cc1`, the IC50 was > 80 µM (inactive).

Consider `Brc1ccc2nc(-c3ccccc3)cc(NCCCN3CCCCC3)c2c1`, for which the IC50 was > 80 µM (inactive).

As for `c1ccc(-c2nc(NCCN3CCOCC3)c3ccccc3n2)cc1`, the IC50 is > 80 µM (inactive).

As to `COc1cc2nc(-c3ccccc3)cc(NCCCN3CCCCC3)c2cc1OC`, the IC50 was > 80 µM (inactive).

With `c1ccc(-c2nc(N3CCCCCC3)c3ccccc3n2)cc1`, the IC50 was > 80 µM (inactive).

In the case of `c1ccc(-c2cc(NCCN3CCOCC3)c3ccccc3n2)cc1`, the IC50 is > 80 µM (inactive).

In the case of `c1ccc(-c2nc(NCCCn3ccnc3)c3ccccc3n2)cc1`, the IC50 was > 80 µM (inactive).

Consider `c1ccc(-c2cc(SCCCN3CCCCC3)c3ccccc3n2)cc1`, for which the IC50 is > 80 µM (inactive).

Take `c1ccc(-c2nc(N3CCCC3)c3ccccc3n2)cc1`: the IC50 is > 80 µM (inactive).

For `c1ccc(-c2cc(NCCCN3CCCCC3)c3ccccc3n2)cc1`, the IC50 was > 80 µM (inactive).

Take `CCN(CC)c1nc(-c2ccccc2)nc2ccccc12`: the IC50 is > 80 µM (inactive).

On to `Fc1ccc(-c2cc(NCCCN3CCCCC3)c3ccccc3n2)cc1`, for which the IC50 was > 80 µM (inactive).

In the case of `c1ccc(-c2cc(N3CCCCC3)c3ccccc3n2)cc1`, the IC50 was > 80 µM (inactive).

As for `c1ccc(-c2nc(N3CCCCC3)c3ccccc3n2)cc1`, the IC50 is > 80 µM (inactive).

As to `c1ccc2c(NCCCN3CCCCC3)cc(-c3ccncc3)nc2c1`, the IC50 was > 80 µM (inactive).

As for `CC(C)Nc1nc(-c2ccccc2)nc2ccccc12`, the IC50 was > 80 µM (inactive).

In the case of `Cc1ccc(-c2nc(NCc3cccnc3)c3ccccc3n2)cc1`, the IC50 was > 80 µM (inactive).

For `CN1CCN(c2nc(-c3ccccc3)nc3ccccc23)CC1`, the IC50 was > 80 µM (inactive).

For `CN(C)CCNc1nc(-c2ccccc2)nc2ccccc12`, the IC50 was > 80 µM (inactive).

`Fc1ccccc1-c1nc(NC2CCCC2)c2ccccc2n1`: the IC50 was > 80 µM (inactive).

Turning to `c1ccc(-c2nc(N3CCSCC3)c3ccccc3n2)cc1`, the IC50 is > 80 µM (inactive).

Regarding `COc1ccccc1CNc1ncnc2ccsc12`, the IC50 was > 80 µM (inactive).

With `Cc1ccc(-c2cc(NCCCN3CCCCC3)c3ccccc3n2)cc1`, the IC50 was > 80 µM (inactive).

Consider `CCc1nc(N)nc(N)c1-c1ccc(Cl)cc1`, for which the IC50 is > 80 µM (inactive).

Consider `c1ccc(-c2nc(NCCCN3CCCCC3)c3ccccc3n2)cc1`, for which the IC50 was > 80 µM (inactive).

For the molecule `c1ccc(-c2nc(NC3CCCC3)c3ccccc3n2)cc1`, the IC50 was > 80 µM (inactive).

For the molecule `Fc1ccc2nc(-c3ccccc3)cc(NCCCN3CCCCC3)c2c1`, the IC50 was > 80 µM (inactive).

Consider `O=C(OCCNc1nc(-c2ccccc2)nc2ccccc12)c1ccncc1`, for which the IC50 is > 80 µM (inactive).

In the case of `Clc1ccccc1-c1cc(NCCCN2CCCCC2)c2ccccc2n1`, the IC50 was > 80 µM (inactive).

Take `Clc1ccc(-c2cc(NCCCN3CCCCC3)c3ccccc3n2)cc1`: the IC50 was > 80 µM (inactive).

Regarding `COc1ccccc1-c1cc(NCCCN2CCCCC2)c2ccccc2n1`, the IC50 is > 80 µM (inactive).

Take `Clc1cccc(Cl)c1Cn1cnc(=NCc2ccco2)c2[nH]cnc21`: the IC50 is > 80 µM (inactive).

With `c1ccc(-c2nc(NCc3cccnc3)c3ccccc3n2)cc1`, the IC50 was > 80 µM (inactive).

`c1ccc(-c2nc(NC3CC3)c3ccccc3n2)cc1`: the IC50 is > 80 µM (inactive).

`c1ccc(-c2nc(NC3CCCCC3)c3ccccc3n2)cc1`: the IC50 is > 80 µM (inactive).

With `CC(C)OCCCNc1nc(-c2ccccc2)nc2ccccc12`, the IC50 was > 80 µM (inactive).

Regarding `CC(C)CNc1nc(-c2ccccc2)nc2ccccc12`, the IC50 is > 80 µM (inactive).

`c1ccc(-c2nc(N3CCOCC3)c3ccccc3n2)cc1`: the IC50 is > 80 µM (inactive).

In the case of `COc1cccc(-c2cc(NCCCN3CCCCC3)c3ccccc3n2)c1`, the IC50 is > 80 µM (inactive).

As for `CN(C)CCNc1cc(-c2ccccc2)nc2ccccc12`, the IC50 is > 80 µM (inactive).

Regarding `CCCCNc1nc(-c2ccccc2)nc2ccccc12`, the IC50 was > 80 µM (inactive).

Consider `c1ccc(-c2cc(NCCCN3CCOCC3)c3ccccc3n2)cc1`, for which the IC50 was > 80 µM (inactive).

On to `Fc1ccccc1-c1nc(NCCCN2CCOCC2)c2ccccc2n1`, for which the IC50 is > 80 µM (inactive).

For `CC1CCN(c2nc(-c3ccccc3)nc3ccccc23)CC1`, the IC50 was > 80 µM (inactive).

As to `Cc1ccc2nc(-c3ccccc3)cc(NCCCN3CCCCC3)c2c1`, the IC50 is > 80 µM (inactive).

`c1ccc(-c2nc(NCCCN3CCOCC3)c3ccccc3n2)cc1`: the IC50 is > 80 µM (inactive).

On to `c1ccc(-c2cc(NCCN3CCCCC3)c3ccccc3n2)cc1`, for which the IC50 was > 80 µM (inactive).

In the case of `Cc1c(CCC(=O)O)c(=O)oc2c(C)c(OCc3ccccc3Cl)ccc12`, the IC50 was 5.21 µM.

Consider `c1ccc(-c2nc(NCCN3CCCC3)c3ccccc3n2)cc1`, for which the IC50 was > 80 µM (inactive).

As for `c1ccc(-c2nc(NCCN3CCCCC3)c3ccccc3n2)cc1`, the IC50 is > 80 µM (inactive).

As to `Cc1ccc(-c2nc(NCCN3CCOCC3)c3ccccc3n2)cc1`, the IC50 was > 80 µM (inactive).

In the case of `Clc1cccc(-c2cc(NCCCN3CCCCC3)c3ccccc3n2)c1`, the IC50 is > 80 µM (inactive).

With `O=C(OCCNc1nc(-c2ccccc2)nc2ccccc12)c1cccnc1`, the IC50 is > 80 µM (inactive).

Take `Nc1nc(N)c(Cc2ccc(Cl)cc2Cl)c(N)n1`: the IC50 was > 80 µM (inactive).
